Earlier results as cited in paper PMC13112601 (International journal of biological macromolecules, 2026).

Key:
ERRα = biological target: T1, ERRα (Homo sapiens, UniProt P11474); conditions: previously reported
T1 construct: Full-length ERRα (A) and ERRγ (B) transfection assay results in HEK293 cells; host or cells: HEK293
T1 sequence (P11474 1-423): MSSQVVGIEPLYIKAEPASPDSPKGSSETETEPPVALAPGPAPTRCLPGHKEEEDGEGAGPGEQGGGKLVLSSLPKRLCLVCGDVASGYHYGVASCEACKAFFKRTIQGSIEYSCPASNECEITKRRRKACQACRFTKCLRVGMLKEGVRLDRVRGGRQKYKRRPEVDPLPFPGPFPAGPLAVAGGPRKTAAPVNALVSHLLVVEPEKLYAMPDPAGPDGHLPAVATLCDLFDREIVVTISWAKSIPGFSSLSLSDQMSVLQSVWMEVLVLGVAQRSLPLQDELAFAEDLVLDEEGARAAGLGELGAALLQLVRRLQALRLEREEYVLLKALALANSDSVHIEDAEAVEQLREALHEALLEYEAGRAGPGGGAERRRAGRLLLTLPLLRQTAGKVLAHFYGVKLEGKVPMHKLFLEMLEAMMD

ERRγ = biological target: T2, ERRγ (Homo sapiens, UniProt P62508); conditions: previously reported
T2 construct: Full-length ERRα (A) and ERRγ (B) transfection assay results in HEK293 cells; host or cells: HEK293
T2 sequence (P62508 1-458): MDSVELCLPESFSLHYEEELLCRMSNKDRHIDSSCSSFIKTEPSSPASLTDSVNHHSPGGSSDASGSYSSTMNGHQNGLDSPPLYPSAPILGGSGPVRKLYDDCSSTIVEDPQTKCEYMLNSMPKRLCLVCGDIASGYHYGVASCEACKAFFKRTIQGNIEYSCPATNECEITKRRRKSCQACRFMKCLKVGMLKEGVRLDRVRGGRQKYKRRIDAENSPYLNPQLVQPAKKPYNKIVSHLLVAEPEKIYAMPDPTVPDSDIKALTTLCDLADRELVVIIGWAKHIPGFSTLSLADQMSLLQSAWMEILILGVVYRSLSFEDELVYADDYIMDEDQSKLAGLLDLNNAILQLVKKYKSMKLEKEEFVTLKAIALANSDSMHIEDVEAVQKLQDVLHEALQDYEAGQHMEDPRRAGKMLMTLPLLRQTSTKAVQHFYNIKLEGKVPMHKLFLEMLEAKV

EC50 (ERRα): 209 nM
EC50 (ERRγ): 194 nM
SMILES: Cc1ccc(C(=O)N/N=C/c2ccccc2)cc1 [BE5082, (E)-N′-Benzylidene-4-methylbenzohydrazide]
